Assay results as given in patent US20190307843A1, “SINGLE DOSE METHODS FOR PREVENTING AND TREATING FUNGAL INFECTIONS” (Cidara Therapeutics, Inc., priority 2016, published 2019).
≈ marks a conversion by molar mass, not a printed value. Read-outs that look alike come from different tables or passages of the source.

What was measured:
[1] = type: in vivo, rat; conditions: rat, in vivo
Method: The rats were monitored at a frequency appropriate for their clinical condition. Rat weights were recorded at least once daily to ensure animals remained within ethical limits.

[2] = system: C. albicans SC-5314 biofilms; test: Mature phase biofilms (treatment), XTT metabolic activity and CSLM; type: cell-based, Candida albicans
Candida auris strains = test: Candida auris antifungal susceptibility testing (CLSI M27-A3), 38 strains; type: cell-based; conditions: for MIC: Candidozyma auris
[3] = system: C. albicans SC-5314 biofilms; test: Adhesion phase biofilms (prevention), XTT metabolic activity and CSLM; type: cell-based, Candida albicans
[4] = fluconazole 1 and 4 μg/ml, 24 h

Compound: OC(Cn1cncn1)(Cn1cncn1)c1ccc(F)cc1F [fluconazole]
- tolerability [1]: well tolerated with no adverse events observed
- thickness of biofilms ([2]; fluconazole): no effect
- effect on mature biofilms [2, 4]: did not affect Candida biofilms
- MIC (Candida auris strains; 24 h, strain 1 VPCI 669/P/12): > 128 µg/mL
- MIC (Candida auris strains; 24 h, strain 2 VCPI 671/P/12): > 128 µg/mL
- MIC (Candida auris strains; 24 h, strain 3 VCPI 674/P/12): > 128 µg/mL
- MIC (Candida auris strains; 24 h, strain 4 VCPI 683/P/12): > 128 µg/mL
- MIC (Candida auris strains; 24 h, strain 5 VCPI 692/P/12): > 128 µg/mL
- MIC (Candida auris strains; 24 h, strain 6 VCPI 712/P/12): > 128 µg/mL
- MIC (Candida auris strains; 24 h, strain 7 VCPI 471/P/13): > 128 µg/mL
- MIC (Candida auris strains; 24 h, strain 8 VCPI 475/P/13): > 128 µg/mL
- MIC (Candida auris strains; 24 h, strain 9 VCPI 478/P/13): > 128 µg/mL
- MIC (Candida auris strains; 24 h, strain 10 VCPI 479/P/13): > 128 µg/mL
- MIC (Candida auris strains; 24 h, strain 11 VCPI 480/P/13): > 128 µg/mL
- MIC (Candida auris strains; 24 h, strain 12 VCPI 482/P/13): > 128 µg/mL
- MIC (Candida auris strains; 24 h, strain 13 VCPI 483/P/13): > 128 µg/mL
- MIC (Candida auris strains; 24 h, strain 14 VCPI 1130/P/13, 24 h, read-out: MIC): 32 µg/mL (≈ 104 µM)
- MIC (Candida auris strains; 24 h, strain 15 VCPI 1132/P/13): 128 µg/mL (≈ 418 µM)
- MIC (Candida auris strains; 24 h, strain 16 VCPI 1133/P/13): > 128 µg/mL
- MIC (Candida auris strains; 24 h, strain 17 VCPI 105/P/14): 128 µg/mL (≈ 418 µM)
- MIC (Candida auris strains; 24 h, strain 18 VCPI 107/P/14, 24 h, read-out: MIC): 64 µg/mL (≈ 209 µM)
- MIC (Candida auris strains; 24 h, strain 19 VCPI 510/P/14): > 128 µg/mL
- MIC (Candida auris strains; 24 h, strain 20 VCPI 511/P/14): 128 µg/mL (≈ 418 µM)
- MIC (Candida auris strains; 24 h, strain 21 VCPI 512/P/14, 24 h, read-out: MIC): 16 µg/mL (≈ 52.2 µM)
- MIC (Candida auris strains; 24 h, strain 22 VCPI 513/P/14): > 128 µg/mL
- MIC (Candida auris strains; 24 h, strain 23 VCPI 514/P/14): > 128 µg/mL
- MIC (Candida auris strains; 24 h, strain 24 VCPI 250/P/14, 24 h, read-out: MIC): 64 µg/mL (≈ 209 µM)
- MIC (Candida auris strains; 24 h, strain 25 VCPI 265/P/14): > 128 µg/mL
- MIC (Candida auris strains; 24 h, strain 26 VCPI 266/P/14): > 128 µg/mL
- MIC (Candida auris strains; 24 h, strain 27 VCPI 462/P/14): > 128 µg/mL
- MIC (Candida auris strains; 24 h, strain 28 VCPI 463/P/14): > 128 µg/mL
- MIC (Candida auris strains; 24 h, strain 29 VCPI 467/P/14): > 128 µg/mL
- MIC (Candida auris strains; 24 h, strain 30 VCPI 471a/P/14): > 128 µg/mL
- MIC (Candida auris strains; 24 h, strain 31 VCPI 478/P/14): > 128 µg/mL
- MIC (Candida auris strains; 24 h, strain 32 VCPI 518/P/14): > 128 µg/mL
- MIC (Candida auris strains; 24 h, strain 33 VCPI 550/P/14): > 128 µg/mL
- MIC (Candida auris strains; 24 h, strain 34 VCPI 714/P/14): > 128 µg/mL
- MIC (Candida auris strains; 24 h, strain 35 VCPI 717/P/14, 24 h, read-out: MIC): 4 µg/mL (≈ 13.1 µM)
- MIC (Candida auris strains; 24 h, strain 36 VCPI 1060/P/14): > 128 µg/mL
- MIC (Candida auris strains; 24 h, strain 37 VCPI 74/P/15): > 128 µg/mL
- MIC (Candida auris strains; 24 h, strain 38 VCPI 213/P/15): > 128 µg/mL
- MIC (Candida auris strains; 48 h, strain 1 VPCI 669/P/12): > 128 µg/mL
- MIC (Candida auris strains; 48 h, strain 2 VCPI 671/P/12): > 128 µg/mL
- MIC (Candida auris strains; 48 h, strain 3 VCPI 674/P/12): 128 µg/mL (≈ 418 µM)
- MIC (Candida auris strains; 48 h, strain 4 VCPI 683/P/12): > 128 µg/mL
- MIC (Candida auris strains; 48 h, strain 5 VCPI 692/P/12): > 128 µg/mL
- MIC (Candida auris strains; 48 h, strain 6 VCPI 712/P/12): 128 µg/mL (≈ 418 µM)
- MIC (Candida auris strains; 48 h, strain 7 VCPI 471/P/13): > 128 µg/mL
- MIC (Candida auris strains; 48 h, strain 8 VCPI 475/P/13, 48 h, read-out: MIC): 64 µg/mL (≈ 209 µM)
- MIC (Candida auris strains; 48 h, strain 9 VCPI 478/P/13): 128 µg/mL (≈ 418 µM)
- MIC (Candida auris strains; 48 h, strain 10 VCPI 479/P/13): 128 µg/mL (≈ 418 µM)
- MIC (Candida auris strains; 48 h, strain 11 VCPI 480/P/13): > 128 µg/mL
- MIC (Candida auris strains; 48 h, strain 12 VCPI 482/P/13): > 128 µg/mL
- MIC (Candida auris strains; 48 h, strain 13 VCPI 483/P/13): 128 µg/mL (≈ 418 µM)
- MIC (Candida auris strains; 48 h, strain 14 VCPI 1130/P/13, 48 h, read-out: MIC): 64 µg/mL (≈ 209 µM)
- MIC (Candida auris strains; 48 h, strain 15 VCPI 1132/P/13): 128 µg/mL (≈ 418 µM)
- MIC (Candida auris strains; 48 h, strain 16 VCPI 1133/P/13): > 128 µg/mL
- MIC (Candida auris strains; 48 h, strain 17 VCPI 105/P/14): 128 µg/mL (≈ 418 µM)
- MIC (Candida auris strains; 48 h, strain 18 VCPI 107/P/14): > 128 µg/mL
- MIC (Candida auris strains; 48 h, strain 19 VCPI 510/P/14): > 128 µg/mL
- MIC (Candida auris strains; 48 h, strain 20 VCPI 511/P/14): > 128 µg/mL
- MIC (Candida auris strains; 48 h, strain 21 VCPI 512/P/14): > 128 µg/mL
- MIC (Candida auris strains; 48 h, strain 22 VCPI 513/P/14): > 128 µg/mL
- MIC (Candida auris strains; 48 h, strain 23 VCPI 514/P/14): > 128 µg/mL
- MIC (Candida auris strains; 48 h, strain 24 VCPI 250/P/14): > 128 µg/mL
- MIC (Candida auris strains; 48 h, strain 25 VCPI 265/P/14): > 128 µg/mL
- MIC (Candida auris strains; 48 h, strain 26 VCPI 266/P/14): > 128 µg/mL
- MIC (Candida auris strains; 48 h, strain 27 VCPI 462/P/14): > 128 µg/mL
- MIC (Candida auris strains; 48 h, strain 28 VCPI 463/P/14): > 128 µg/mL
- MIC (Candida auris strains; 48 h, strain 29 VCPI 467/P/14): > 128 µg/mL
- MIC (Candida auris strains; 48 h, strain 30 VCPI 471a/P/14): > 128 µg/mL
- MIC (Candida auris strains; 48 h, strain 31 VCPI 478/P/14): > 128 µg/mL
- MIC (Candida auris strains; 48 h, strain 32 VCPI 518/P/14): > 128 µg/mL
- MIC (Candida auris strains; 48 h, strain 33 VCPI 550/P/14): > 128 µg/mL
- MIC (Candida auris strains; 48 h, strain 34 VCPI 714/P/14): > 128 µg/mL
- MIC (Candida auris strains; 48 h, strain 35 VCPI 717/P/14): > 128 µg/mL
- MIC (Candida auris strains; 48 h, strain 36 VCPI 1060/P/14): > 128 µg/mL
- MIC (Candida auris strains; 48 h, strain 37 VCPI 74/P/15): > 128 µg/mL
- MIC (Candida auris strains; 48 h, strain 38 VCPI 213/P/15): > 128 µg/mL
- number of resistant isolates (Candida auris strains; of 38 C. auris isolates): 38
- thickness of biofilms ([3]; fluconazole): no effect on biofilm thickness
- biofilm formation by metabolic activity (XTT) [3, 4]: did not inhibit biofilm formation
